# Source: patent US3962282A, “Juvenile hormone mimics” (priority 1974, dated 1976)
# What was measured:
# wax moth = test: topical application to wax moth, fifth larval stage, maturation inhibition; format: in vivo
# Summary of the method: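 Compounds applied topically, 1 μL acetone solution at 10%, 1% or 0.5%, to ten specimens per insect per concentration, alongside acetone and untreated controls; scored after about 8–10 days. Juvenile/adult characteristics rated 0–3 (Tenebrio 0–4), ≥2 meaning unable to reproduce; unreported specimens died during metamorphosis.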
# Southern corn rootworm = Southern corn rootworm larvae in treated petri dishes, adult emergence; format: in vivo, Diabrotica undecimpunctata; conditions: 21 days
# Experimental: Petri dishes containing 150 g. of sand were autoclaved for one hour. Corn seed which had been soaked overnight was rinsed first with a solution of 10 percent alcohol, 20 percent chlorox, and 70 percent water for 15 minutes and then with clear water. Three to four seeds were placed in each dish. The dishes were then moistened with 15 ml. of a 100 ppm. solution of a fungicide. After 24 hours, ten Southern corn rootworm eggs (Diabrotica undecimpunctata) were placed in each dish. The dishes were maintained in an incubator in the dark for 14 days. New petri dishes were prepared as described except that the eggs were not added and 2,6-diemthyl-9-(3,4-methylenedioxyphenyl)-2,6-nonadiene was added at a rate of 100 ppm. or 10 ppm. Ten dishes at each treatment rate and ten controls were used. Three larvae from the incubated dishes were placed in each of the treated dishes and each control dish. […] There were a total of 15 adults in the ten dishes treated at 10 ppm. and a total of 19 adults in the ten control dishes.
# [1] = system: Mexican bean beetle larvae; test: soil drench of bean plants with Mexican bean beetle larvae; format: in vivo; conditions: scale 0-3
# Experimental: Bean plants of the Bountiful variety were placed in soil and allowed to grow with 10 Mexican bean beetle larvae on each cluster. To the soil around each plant was added 200 ml. of a solution containing 2,6-dimethyl-9-(3,4-methylenedioxyphenyl)-2,6-nonadiene. The soil was then covered with aluminum foil to prevent the larvae from coming in contact with the compound. Three different concentrations of compound were applied. These were prepared from a 48 percent emulsifiable concentrate by diluting 10 ml., 4 ml., and 2 ml. of the concentrate to a volume of 200 ml. with water. A control using 200 ml. of just water and another using no drench were also run. The results are tabulated below using the same rating system as described earlier for the primary screening test agains Mexican bean beetle.
# [2] = system: Mexican bean beetle larvae; test: spray of caged flats of bean plants with Mexican bean beetle larvae; format: in vivo
# Experimental: Six-foot by 12-foot caged flats were planted with Bountiful variety bean plants in two 12-foot rows. Into each cage were introduced 100 Mexican bean beetle larvae. Each cage was then sprayed with 500 ml. of a solution prepared by diluting a 48 percent emulsifiable concentrate of 2,6-dimethyl-9-(3,4-methylenedioxyphenyl)-2,6-nonadiene to the desired concentration. Two flats were treated at each concentration and two were used as controls.
# [3] = system: Mexican bean beetle larvae; test: fumigant and residual activity in jars on Mexican bean beetle larvae; format: in vivo
# Experimental: Fumigant and residual activity of 2,6-dimethyl-9-(3,4-methylenedioxyphenyl)-2,6-nonadiene was determined in the following manner. One milliliter of a 1 percent, a 0.1 percent or a 0.01 percent solution of the test compound was placed in the bottom of a one pint jar. A control was prepared using just acetone. The acetone was allowed to evaporate and 10 Mexican bean beetle larvae were placed on a screen 5 inches from the bottom. The jar was closed for one week at which time the controls emerge as adults and the treated ones are rated as described above. The larvae are replaced weekly.
smiles,measurement,setting,value
"CC(C)=CCCC(C)=CCCc1ccc2c(c1)OCO2 [2,6-dimethyl-9-(3,4-methylenedioxyphenyl)-2,6-nonadiene]",number of specimens in rating 0,"wax moth; 0.5%, rating scale 0-3",8 specimens
same,number of specimens in rating 1,"wax moth; 0.5%, rating scale 0-3",1 specimens
same,number of specimens in rating 0,"wax moth; 1%, rating scale 0-3",9 specimens
same,number of specimens in rating 3,"wax moth; 1%, rating scale 0-3",1 specimens
same,number of specimens in rating 0,"wax moth; 10% in acetone, 1 microliter topical, rating scale 0 (no effect) to 3 (maximum)",7 specimens
same,number of specimens in rating 1,"wax moth; 10%, rating scale 0-3",2 specimens
same,number of specimens in rating 3,"wax moth; 10%, rating scale 0-3",1 specimens
same,total adults in the ten dishes,"Southern corn rootworm; 10 ppm, 19 adults in ten control dishes",15 adults
same,adults emerged,Southern corn rootworm; 100 ppm,no adults had emerged
same,number in rating 0,[1]; 2 ml. concentrate/200 ml.,8
same,number in rating 3,[1]; 2 ml. concentrate/200 ml.,2
same,number in rating 0,[1]; 4 ml. concentrate/200 ml.,2
same,number in rating 3,[1]; 4 ml. concentrate/200 ml.,8
same,number in rating 0,[1]; 10 ml. concentrate/200 ml.,1
same,number in rating 3,[1]; 10 ml. concentrate/200 ml.,9
same,% Control,[2]; 0.1 lbs./acre,13%
same,% Control,[2]; 0.2 lbs./acre,71.5%
same,% Control,[2]; 0.4 lbs./acre,75.5%
same,% Control,[2]; 0.8 lbs./acre,98.5%
same,number in rating 0,"[3]; Fifteenth Week, 0.01%",10
same,number in rating 0,"[3]; Fifteenth Week, 0.1%",10
same,number in rating 3,"[3]; Fifteenth Week, 1%",10
same,number in rating 0,"[3]; Fifth Week, 0.01%",10
same,number in rating 3,"[3]; Fifth Week, 0.1%",10
same,number in rating 3,"[3]; Fifth Week, 1%",10
same,number in rating 0,"[3]; First Week, 0.01% (0.1 mg.)",5
same,number in rating 2,"[3]; First Week, 0.01% (0.1 mg.)",1
same,number in rating 3,"[3]; First Week, 0.01% (0.1 mg.)",4
same,number in rating 3,"[3]; First Week, 0.1% (1 mg.)",10
same,number in rating 2,"[3]; First Week, 1% (10 mg.)",1
same,number in rating 3,"[3]; First Week, 1% (10 mg.)",9
same,number in rating 0,"[3]; Second Week, 0.01%",4
same,number in rating 2,"[3]; Second Week, 0.01%",2
same,number in rating 3,"[3]; Second Week, 0.01%",4
same,number in rating 3,"[3]; Second Week, 0.1%",10
same,number in rating 0,"[3]; Second Week, 1%",1
same,number in rating 3,"[3]; Second Week, 1%",10
same,number in rating 0,"[3]; Tenth Week, 0.01%",10
same,number in rating 0,"[3]; Tenth Week, 0.1%",5
same,number in rating 1,"[3]; Tenth Week, 0.1%",2
same,number in rating 2,"[3]; Tenth Week, 0.1%",1
same,number in rating 3,"[3]; Tenth Week, 0.1%",2
same,number in rating 3,"[3]; Tenth Week, 1%",10
same,number in rating 3,"[3]; Twenty-second Week, 1%",10
